Assay: solvent given as SMILES

For c1ccccc1, the “solvation free energy, 298 K” value (in BrC(Br)C(Br)Br) was -4.27 kcal/mol, the “solvation free energy, 298 K” value (in Brc1cccc2ccccc12) was -4.1 kcal/mol and the “solvation free energy, 298 K” value (in C1=CCCCC1) was -4.37 kcal/mol. The “solvation free energy, 298 K” value (in C1=Cc2ccccc2C1) was -4.39 kcal/mol, the “solvation free energy, 298 K” value (in C1CCC(C2CCCCC2)CC1) was -3.96 kcal/mol and the “solvation free energy, 298 K” value (in C1CCCCC1) was -4.21 kcal/mol. For the same compound, the “solvation free energy, 298 K” value (in C1CCOC1) was -4.75 kcal/mol, the “solvation free energy, 298 K” value (in C1COCCO1) was -4.53 kcal/mol and the “solvation free energy, 298 K” value (in C=CCCCCCCCCCCCCCC) was -3.83 kcal/mol. The “solvation free energy, 298 K” value (in CC1CCCC1) was -4.19 kcal/mol, the “solvation free energy, 298 K” value (in CC1CCS(=O)(=O)C1) was -4.11 kcal/mol and the “solvation free energy, 298 K” value (in CC1COC(=O)O1) was -3.88 kcal/mol. For the same compound, the “solvation free energy, 298 K” value (in CC#N) was -4.25 kcal/mol, the “solvation free energy, 298 K” value (in CC(=O)CC(C)C) was -4.44 kcal/mol and the “solvation free energy, 298 K” value (in CC(=O)N(C)C) was -4.29 kcal/mol. For the same compound, the “solvation free energy, 298 K” value (in CC(=O)O) was -3.94 kcal/mol, the “solvation free energy, 298 K” value (in CC(=O)OCc1ccccc1) was -4.26 kcal/mol and the “solvation free energy, 298 K” value (in CC(=O)c1ccccc1) was -4.28 kcal/mol. The “solvation free energy, 298 K” value (in CC(C)(C)O) was -3.71 kcal/mol, the “solvation free energy, 298 K” value (in CC(C)=O) was -4.42 kcal/mol and the “solvation free energy, 298 K” value (in CC(C)CC(C)(C)C) was -3.95 kcal/mol. The “solvation free energy, 298 K” value (in CC(C)CCCC(C)CCCC(C)CCCCC(C)CCCC(C)CCCC(C)C) was -3.69 kcal/mol, the “solvation free energy, 298 K” value (in CC(C)CO) was -3.71 kcal/mol and the “solvation free energy, 298 K” value (in CC(C)O) was -3.71 kcal/mol. For the same compound, the “solvation free energy, 298 K” value (in CC(O)CO) was -3.21 kcal/mol, the “solvation free energy, 298 K” value (in CCC#N) was -4.47 kcal/mol and the “solvation free energy, 298 K” value (in CCC(C)=O) was -4.49 kcal/mol. The “solvation free energy, 298 K” value (in CCC(C)O) was -3.78 kcal/mol, the “solvation free energy, 298 K” value (in CCCC#N) was -4.29 kcal/mol and the “solvation free energy, 298 K” value (in CCCCC#N) was -4.42 kcal/mol. For the same compound, the “solvation free energy, 298 K” value (in CCCCC(CC)COC(=O)CCCCC(=O)OCC(CC)CCCC) was -4.09 kcal/mol, the “solvation free energy, 298 K” value (in CCCCC(CC)COC(=O)c1ccccc1C(=O)OCC(CC)CCCC) was -3.9 kcal/mol and the “solvation free energy, 298 K” value (in CCCCCC) was -4.03 kcal/mol. The “solvation free energy, 298 K” value (in CCCCCC#N) was -4.36 kcal/mol, the “solvation free energy, 298 K” value (in CCCCCCC) was -4 kcal/mol and the “solvation free energy, 298 K” value (in CCCCCCCC) was -3.96 kcal/mol. The “solvation free energy, 298 K” value (in CCCCCCCCCC) was -3.98 kcal/mol, the “solvation free energy, 298 K” value (in CCCCCCCCCCCC) was -3.85 kcal/mol and the “solvation free energy, 298 K” value (in CCCCCCCCCCCCCCCC) was -3.82 kcal/mol. For the same compound, the “solvation free energy, 298 K” value (in CCCCCCCCCCCCO) was -3.74 kcal/mol, the “solvation free energy, 298 K” value (in CCCCCCCCCCO) was -3.59 kcal/mol and the “solvation free energy, 298 K” value (in CCCCCCCCCOC(=O)c1ccccc1C(=O)OCCCCCCCCC) was -3.98 kcal/mol. The “solvation free energy, 298 K” value (in CCCCCCCCO) was -3.81 kcal/mol, the “solvation free energy, 298 K” value (in CCCCCCCO) was -3.83 kcal/mol and the “solvation free energy, 298 K” value (in CCCCCO) was -3.86 kcal/mol. The “solvation free energy, 298 K” value (in CCCCCl) was -4.46 kcal/mol, the “solvation free energy, 298 K” value (in CCCCN(C=O)CCCC) was -4.26 kcal/mol and the “solvation free energy, 298 K” value (in CCCCOC(=O)c1ccccc1C(=O)OCCCC) was -4.23 kcal/mol. The “solvation free energy, 298 K” value (in CCCCOC(C)=O) was -3.87 kcal/mol, the “solvation free energy, 298 K” value (in CCCCOCCCC) was -4.11 kcal/mol and the “solvation free energy, 298 K” value (in CCCO) was -3.84 kcal/mol. For the same compound, the “solvation free energy, 298 K” value (in CCN1CCCC1=O) was -4.5 kcal/mol, the “solvation free energy, 298 K” value (in CCN(CC)C(C)=O) was -4.39 kcal/mol and the “solvation free energy, 298 K” value (in CCNC(C)=O) was -4 kcal/mol. The “solvation free energy, 298 K” value (in CCNC=O) was -3.94 kcal/mol, the “solvation free energy, 298 K” value (in CCO) was -3.88 kcal/mol and the “solvation free energy, 298 K” value (in CCOC(=O)c1ccccc1C(=O)OCC) was -4.06 kcal/mol. The “solvation free energy, 298 K” value (in CCOC(C)=O) was -4.42 kcal/mol, the “solvation free energy, 298 K” value (in CN1CCCC1=O) was -4.43 kcal/mol and the “solvation free energy, 298 K” value (in CN1CCCCC1=O) was -4.47 kcal/mol. The “solvation free energy, 298 K” value (in CN(C)P(=O)(N(C)C)N(C)C) was -4.31 kcal/mol, the “solvation free energy, 298 K” value (in CNC(C)=O) was -3.87 kcal/mol and the “solvation free energy, 298 K” value (in CNC=O) was -3.83 kcal/mol. The “solvation free energy, 298 K” value (in CO) was -3.85 kcal/mol, the “solvation free energy, 298 K” value (in COC(=O)OC) was -4.41 kcal/mol and the “solvation free energy, 298 K” value (in COC(C)(C)C) was -4.31 kcal/mol. The “solvation free energy, 298 K” value (in COC(C)=O) was -4.38 kcal/mol, the “solvation free energy, 298 K” value (in COCCO) was -4.02 kcal/mol and the “solvation free energy, 298 K” value (in CS(C)=O) was -3.96 kcal/mol. The “solvation free energy, 298 K” value (in Cc1ccc(C)cc1) was -4.37 kcal/mol, the “solvation free energy, 298 K” value (in Cc1cccc2ccccc12) was -4.17 kcal/mol and the “solvation free energy, 298 K” value (in Cc1cccc(C)c1) was -4.36 kcal/mol. The “solvation free energy, 298 K” value (in Cc1cccc(O)c1) was -4 kcal/mol, the “solvation free energy, 298 K” value (in Cc1ccccc1) was -4.47 kcal/mol and the “solvation free energy, 298 K” value (in ClC(Cl)(Cl)Cl) was -4.42 kcal/mol. The “solvation free energy, 298 K” value (in ClC(Cl)C(Cl)Cl) was -4.59 kcal/mol, the “solvation free energy, 298 K” value (in ClC(Cl)Cl) was -4.79 kcal/mol and the “solvation free energy, 298 K” value (in ClCBr) was -4.74 kcal/mol. For the same compound, the “solvation free energy, 298 K” value (in ClCCCl) was -4.59 kcal/mol, the “solvation free energy, 298 K” value (in ClCCl) was -4.8 kcal/mol and the “solvation free energy, 298 K” value (in Clc1cccc2ccccc12) was -4.07 kcal/mol. For the same compound, the “solvation free energy, 298 K” value (in Clc1ccccc1) was -4.44 kcal/mol, the “solvation free energy, 298 K” value (in N#CCCCC#N) was -3.59 kcal/mol and the “solvation free energy, 298 K” value (in N#CCCCCC#N) was -3.92 kcal/mol. The “solvation free energy, 298 K” value (in N#CCCO) was -3.5 kcal/mol, the “solvation free energy, 298 K” value (in N#CCc1ccccc1) was -4.13 kcal/mol and the “solvation free energy, 298 K” value (in N#Cc1ccccc1) was -4.35 kcal/mol. The “solvation free energy, 298 K” value (in NC=O) was -2.69 kcal/mol, the “solvation free energy, 298 K” value (in NCCN) was -3.63 kcal/mol and the “solvation free energy, 298 K” value (in NCCO) was -3.09 kcal/mol. The “solvation free energy, 298 K” value (in NCc1ccccc1) was -4.23 kcal/mol, the “solvation free energy, 298 K” value (in Nc1ccccc1) was -4.07 kcal/mol and the “solvation free energy, 298 K” value (in O) was -0.87 kcal/mol. The “solvation free energy, 298 K” value (in O=C1CCCCC1) was -4.55 kcal/mol, the “solvation free energy, 298 K” value (in O=C1CCCO1) was -4.16 kcal/mol and the “solvation free energy, 298 K” value (in O=C(O)C(Cl)Cl) was -4.09 kcal/mol. For the same compound, the “solvation free energy, 298 K” value (in O=CN1CCOCC1) was -4.02 kcal/mol, the “solvation free energy, 298 K” value (in O=Cc1ccco1) was -4.04 kcal/mol and the “solvation free energy, 298 K” value (in OC1CCCCC1) was -3.85 kcal/mol. The “solvation free energy, 298 K” value (in OCC1CCCO1) was -4.04 kcal/mol, the “solvation free energy, 298 K” value (in OCCCCCO) was -3.33 kcal/mol and the “solvation free energy, 298 K” value (in OCCCCO) was -3.36 kcal/mol. For the same compound, the “solvation free energy, 298 K” value (in OCCCO) was -3.12 kcal/mol, the “solvation free energy, 298 K” value (in OCCCl) was -3.65 kcal/mol and the “solvation free energy, 298 K” value (in OCCO) was -2.76 kcal/mol. For the same compound, the “solvation free energy, 298 K” value (in OCCOCCO) was -3.38 kcal/mol, the “solvation free energy, 298 K” value (in OCCOCCOCCO) was -3.43 kcal/mol and the “solvation free energy, 298 K” value (in OCCOCCOCCOCCO) was -3.56 kcal/mol. For the same compound, the “solvation free energy, 298 K” value (in OCCS) was -3.62 kcal/mol, the “solvation free energy, 298 K” value (in OCCc1ccccc1) was -3.96 kcal/mol and the “solvation free energy, 298 K” value (in OCc1ccccc1) was -3.94 kcal/mol. The “solvation free energy, 298 K” value (in OCc1ccco1) was -3.89 kcal/mol, the “solvation free energy, 298 K” value (in S=C=S) was -4.51 kcal/mol and the “solvation free energy, 298 K” value (in [2H]O[2H]) was -1.01 kcal/mol. For the same compound, the “solvation free energy, 298 K” value (in c1ccc2c(c1)CCCC2) was -4.33 kcal/mol, the “solvation free energy, 298 K” value (in c1ccc2ncccc2c1) was -4.31 kcal/mol and the “solvation free energy, 298 K” value (in c1ccc(C2CCCCC2)cc1) was -4.19 kcal/mol. The “solvation free energy, 298 K” value (in c1ccncc1) was -4.51 kcal/mol and the “solvation free energy, 298 K” value (in c1ccsc1) was -4.61 kcal/mol.
With Cc1ccc(C(=O)O)cc1 the “solvation free energy, 298 K” value (in C=CCCCCCCCCCCCCCC) was -6.96 kcal/mol, the “solvation free energy, 298 K” value (in CCCCCCCCO) was -10.2 kcal/mol and the “solvation free energy, 298 K” value (in O) was -7.35 kcal/mol.
For CC1CCC(C(C)C)C(O)C1 (stereo not drawn), the “solvation free energy, 298 K” value (in O) was -3.2 kcal/mol.
